Drawing on a melting point compilation (Tetko et al.; mined from patent text by program, amines drawn as free bases though some values may be those of a salt), this text covers melting point for 90 compounds.

For orientation: melting point means the temperature of the solid-liquid transition.

The structures appear in SMILES notation.

For the compound `COC(=O)C1C(c2ccccc2)OC(=O)N1C(c1ccccc1)c1ccccc1` (stereo not given), the melting point was 99 to 102 °C.

`O=c1c(Cc2cccnc2)cn2c3cc(Cl)ccc3c3cc(OCCCO)cc1c32`: the melting point lay in the range of 137 to 139 °C.

In turn, `Cc1[nH]n(C2CCCC2O)c2nc(-c3ccncc3)nc(=O)c1-2` (stereo not given) yielded a melting point of 281 to 283 °C.

With `Cn1c(C(F)(F)F)cc(=O)n(-c2ccc(Cl)cc2O)c1=O`, the melting point fell in the range of 198 to 202 °C.

Compound `Cc1c(OCc2ccccc2)ccc(-c2cc(O)c(SCCc3ccccc3)c(=O)o2)c1O` returned a melting point of 147 to 148 °C.

`COc1ccc(-c2nc(-c3ncc4c(n3)CCCC4)ccc2C)nc1`: the melting point lay in the range of 157 to 158 °C.

On to `O=C(c1ccc(O)c(O)c1)c1cccc(C(Cc2ccccc2)Cc2ccccc2)n1`, for which the melting point is 141 to 143 °C.

`CSc1cccc(-c2ccccc2[N+](=O)[O-])c1` had a melting point of 42 to 43 °C.

`CC(=O)NCc1cn(-c2ccc(-n3cncn3)c(F)c2)nn1` returned a melting point of 223 °C.

In turn, `CN1C(=S)CSC=C1c1ccccc1` displayed a melting point of 83 to 85 °C.

In turn, `COC(=O)c1ccc(Cn2nnc3ccc(NC(=O)CC4CCCC4)cc32)c(OC)c1` yielded a melting point of 206 to 208 °C.

For `Cc1cc(OC2CN(C(=O)c3nnc(-c4ccccc4)o3)C2)ccc1CN1CCC(C)(CO)CC1`, the melting point is 167 °C.

As for `CN(C)C(=O)OCc1nc([N+](=O)[O-])c(C#N)n1C`, the melting point is 85 to 88 °C.

Compound `CN1N=CC=Cc2ccccc21` yielded a melting point of 190 to 192 °C.

`CC(=O)N1CCC(CCC(=O)c2ccc3c(c2)CCN3)CC1` showed a melting point of 145 to 146 °C.

In the case of `CC1c2ccccc2CCON1C(N)=O` (stereo not given), the melting point is 128 to 129 °C.

With `O=Cc1ccc(OC(F)F)c2oc3ccncc3c12`, the melting point fell in the range of 215 to 217 °C.

`O=C1N(Cc2cccnc2C(F)(F)F)c2ccccc2C12COc1cc3c(cc12)OCCO3` (stereo not given) registered a melting point of 219 to 220 °C.

On to `CC(C)CCNCCCS(=O)(=O)O`, for which the melting point was 220 °C.

The compound `CC1Cc2cccc(S(N)(=O)=O)c2N1` (stereo not given) came in with a melting point of 110 to 112 °C.

`CN=NNc1ccc(C)cc1`: the melting point lay in the range of 77 to 80 °C.

On to `OC1Oc2ccccc2-n2cnc(-c3noc(C4CC4)n3)c21` (stereo not given), for which the melting point lay in the range of 230 to 234 °C.

`CC(=O)Nc1ccc2c3c1c(=O)c(C(=O)O)cn3C(C)CC2` (stereo not given): the melting point fell in the range of 277 to 279 °C.

As for `O=C(OCOC(=O)C1CCc2c(c3ccccc3n2C(=O)c2ccccc2)C1)c1ccccc1` (stereo not given), the melting point was 84 to 86 °C.

For the compound `O=S(=O)(Nc1onc2c1CCC2)c1ccccc1`, the melting point was determined as 132 °C.

Turning to `COCCc1nc2c(N)nc3ccccc3c2n1CC(C)(C)CN(C(N)=O)c1ccccc1`, the melting point lay within 125 to 130 °C.

Take `O=C1CCC(c2ccccc2O)=NN1`: the melting point lay in the range of 211 to 212 °C.

Consider `Oc1c2c(nn1-c1cc(C(F)(F)F)ccn1)CCc1ccccc1-2`, for which the melting point fell in the range of 161 to 162 °C.

Compound `CCOC(=O)c1cc2cc(Cl)cc([N+](=O)[O-])c2o1` displayed a melting point of 111 to 112 °C.

In the case of `COc1ccc(Cn2cc(C(=O)NCCN(C)C)c3nc4c(C)cccc4cc3c2=O)cc1OC`, the melting point fell in the range of 213 to 214 °C.

As to `CCCCCC(O)C1C(=O)NC(C(=O)SCc2ccccc2)(C(O)C2C=CCCC2)C1(C)O` (stereo not given), the melting point was 123 °C.

Take `COc1ccc2c(=O)cc(-c3n[nH]c4ccccc34)oc2c1`: the melting point lay in the range of 218 to 220 °C.

`O=C1CCOc2cc(OCCn3ccnc3)ccc21` showed a melting point of 128 to 130 °C.

Turning to `CN1Cc2c(-c3nnc(CN)o3)ncn2-c2ccsc2C1=O`, the melting point is 217 to 219 °C.

With `CCCCn1c(CC)ccc1C(=O)c1cccc(N)c1`, the melting point lay in the range of 71 to 77 °C.

The compound `O=C(Nc1ccc(N2CCSCC2)c(F)c1)OCc1ccccc1` came in with a melting point of 142 °C.

Turning to `O=C(O)c1c2c(nc3ccc(F)cc13)-c1ccc(-c3ccccc3F)cc1CCCC2`, the melting point was more than 300 °C.

In the case of `O=C(O)C(=O)c1ccc(OCCOc2ccc3c(c2)CCCC3)cc1`, the melting point lay in the range of 144 to 145 °C.

With `Cc1ccc(S(=O)(=O)ON=C2CCCc3c2ccc(OCc2ccccc2)c3N(C)C(=O)OCc2ccccc2)cc1`, the melting point is 158 to 160 °C.

In turn, `CCc1cc2c(s1)-n1nc(C(=O)O)nc1CN=C2c1ccccc1Cl` had a melting point of 134 to 136 °C.

For `COC(=O)Cc1cccc(OC)c1OCCCc1cn(-c2ccc(C(=O)O)nn2)nc1C(C)C`, the melting point lay within 146 to 147 °C.

Compound `COc1ccc2cc(CC[Si](C)(C)C)c(=O)oc2c1` came in with a melting point of 130 to 132 °C.

For `COc1cc(N(C)C)cc(CN(C)CCc2ccc(N=C(N)c3cccs3)cc2)c1O`, the melting point fell in the range of 91 to 93 °C.

`O=C(O)COc1ccc2cc(-c3cnc(Cc4ccccc4)o3)ccc2c1` gave a melting point of 236 to 238 °C.

`Cc1cc(-n2ccnc2)c2cccc(OCc3c(Cl)ccc(S(=O)(=O)N4CCCC4C(=O)NCC4CCN(CC(=O)CC(=O)O)CC4)c3Cl)c2n1` (stereo not given) gave a melting point of 125 °C.

Consider `CC(C)(C)N(O)Cc1ccc(CN(O)C(C)(C)C)cc1`, for which the melting point is 137 to 138 °C.

Regarding `Nc1ccc(N2CCCCC2)c(C(=O)O)c1`, the melting point is 232 to 235 °C.

As to `O=C(O)CCCCc1ccc2ccccc2c1OCc1ccccc1`, the melting point lay within 70 to 77 °C.

In the case of `Cc1c(-c2ccc3oc(=O)n(C)c3c2)nc2c(OCc3ccccc3)cccn12`, the melting point was found to be 210 °C.

With `C=CC(=O)NCc1ccc(CC(=O)OCC)cc1`, the melting point lay within 93 to 95 °C.

`CC(C)Oc1cc(-c2[nH]c3cn[nH]c(=O)c3c2Cl)ccc1OC(F)F`: the melting point lay in the range of 248 to 262 °C.

Consider `CC1(C)C=Cc2c(ccc3ncccc23)O1`, for which the melting point fell in the range of 104 to 107 °C.

In turn, `O=P(O)(CO)c1ccccc1` returned a melting point of 134 to 136 °C.

Turning to `CCOc1cc2c(=O)cc(C(=O)O)n(CC)c2ccc1=O`, the melting point was in the range of 227 to 228 °C.

The compound `Nc1c(-c2cccnc2)nsc1C(=O)O` displayed a melting point of 235 to 236 °C.

The compound `CCOC(=O)C(C)(C)Oc1ccc(-c2ccc(CCNC(=O)c3ccc(OC)cc3)cc2)cc1` showed a melting point of 149 to 150 °C.

As for `N#Cc1cc2c(c(C(=O)O)c1)NCCCC2`, the melting point was found to be 175 °C.

In turn, `CCCc1c(OCCCCCOc2ccccc2/C=C/C(=O)O)ccc2c1OCCC2=O` yielded a melting point of 123 to 126 °C.

`CO[C@@H]1c2ccn3c(C)c(C)nc3c2N[C@H](c2ccccc2)[C@H]1OC(=O)c1ccccc1` returned a melting point of 92 to 93 °C.

As for `CC(C)(C)C1CCC2(CC1)CC(=NO)CO2` (stereo not given), the melting point amounted to 118 °C.

Compound `CCCCCCC(=O)c1c(O)oc(=O)c(C(=O)CCCCCC)c1O` showed a melting point of 88 to 90 °C.

On to `Cc1nc(N2CCCC2C)c2nc(-c3ccccc3)cc-2[nH]1` (stereo not given), for which the melting point lay in the range of 219 to 221 °C.

Consider `CC(C)(C)OC(=O)C1CCCN1C(=O)c1ccc2c(Cl)cnc(Cl)c2c1` (racemic), for which the melting point was in the range of 144 to 146 °C.

As to `CC(=O)NCCC1(C[N+](=O)[O-])CCCCC1`, the melting point lay within 68 to 70 °C.

As to `O=C(NCCCN1CCC(c2ccccc2)(c2ccccc2)CC1)N1C(=O)OCC1c1ccc(F)c(Cl)c1` (stereo not given), the melting point was in the range of 112 to 115 °C.

`O=[N+]([O-])c1ccccc1C1=NCC(=S)Nc2sccc21` gave a melting point of 207 to 209 °C.

In the case of `O=C(NNC(=O)c1c(F)c(F)c(F)c(F)c1F)c1cc(Cl)ccc1Cl`, the melting point was in the range of 227 to 232 °C.

Consider `COc1cc(C(=O)O)c(C(=O)O)c(Cl)c1Cl`, for which the melting point lay in the range of 218 to 220 °C.

As to `O=C1c2ccccc2C(=O)N1CCCOc1cccc(CO)c1`, the melting point is 78 to 80 °C.

In the case of `CCCCNC(=O)NS(=O)(=O)c1cc2c(cc1OC)OCC(NC(=O)c1cc(Cl)ccc1OC)C2` (stereo not given), the melting point fell in the range of 185 to 186 °C.

`O=C(O)CCCC(=O)ON1C(=O)CCC1=O` showed a melting point of 81 to 83 °C.

As to `Cc1nc(N)c(C#N)cc1-c1ccccc1`, the melting point lay in the range of 182 to 189 °C.

`C=CCC1C(=O)CCCC1=O` returned a melting point of 125 to 127 °C.

In turn, `CCCc1cn(C(C)(C)C(=O)N(C)C)nc1-c1ccccc1` had a melting point of 98.5 to 101 °C.

With `CC(C)(C)c1cc(C(c2ccccc2)N(O)C(N)=O)cc(C(C)(C)C)c1O` (stereo not given), the melting point lay within 188 to 189 °C.

In turn, `O=C1OCc2c(c3cc(-c4ccc(-c5ccccc5)cc4)ccc3n2Cc2ccccc2)C1=O` came in with a melting point of 254 to 255 °C.

Regarding `C[C@H]1C[C@@](O)(c2ccc(S(=O)(=O)c3ccc4c(c3)CCC(=O)N4C)s2)CCO1`, the melting point fell in the range of 80 to 82 °C.

On to `COc1ncnc2ccsc12`, for which the melting point fell in the range of 92 to 94 °C.

`Cn1c(Cl)cnc1C(OC(=O)OC(C)(C)C)c1cc(F)ccc1F` (stereo not given) registered a melting point of 125 to 126 °C.

`COc1cc(Nc2c(C#N)cnc3cc(/C=C/CCN4CCN(C)CC4)ccc23)c(Cl)cc1Cl`: the melting point is 152 to 154 °C.

On to `COc1cc(C(=O)N2CCCC(CCN3CCC(C(=O)c4nc5ccccc5n4Cc4ccc(F)cc4)CC3)(c3ccc(Cl)c(Cl)c3)C2)cc(OC)c1OC` (stereo not given), for which the melting point was in the range of 93 to 95 °C.

Consider `COC(=O)C1CCC2C3CCC4CC(OS(=O)(=O)c5ccc(C)cc5)CCC4(C)C3C(=O)CC12C` (stereo not given), for which the melting point fell in the range of 158 to 160 °C.

`O=C(CC1CCc2ccccc2C1=O)c1ccccc1` (stereo not given) registered a melting point of 73 to 76 °C.

`O=CCN1CCc2ccc(Br)cc2C1=O` gave a melting point of 95 to 96 °C.

`CC(C#Cc1ccc(C=Cc2ccccc2)o1)N(O)C(N)=O` (stereo not given) displayed a melting point of 168 °C.

As for `CNC(=O)N1N=C(c2ccc(N)cc2)c2cc3c(cc2CC1C)OCO3` (stereo not given), the melting point was 133 to 135 °C.

With `COCCOc1ccc(/C=C/C(=O)NS(=O)(=O)c2ccccn2)c(Oc2ncc(C(F)(F)F)cc2Cl)c1`, the melting point was in the range of 164 to 165 °C.

With `CC1(C)CON(Cc2c(Cl)cccc2[N+](=O)[O-])C1=O`, the melting point was 86 to 88 °C.

`O=c1[nH]c2ccc(Cl)cc2n1CCCN1CCN(C(c2ccccc2)c2ccccc2)CC1`: the melting point worked out at 132 °C.

Compound `Cc1cc2c(O)n(CCc3ccc(C(=O)N[C@@H](CCC(=O)O)C(=O)O)cc3)cnc-2n1` came in with a melting point of 291 °C.
